# Experimental data taken from article PMC9005971, “Discovery of 2-(4-Acrylamidophenyl)-Quinoline-4-Carboxylic Acid Derivatives as Potent SIRT3 Inhibitors” (Frontiers in Chemistry, 2022).
# Assays:
# SIRT3 = target: T1, SIRT3 (Homo sapiens, UniProt Q9NTG7); experiment: SIRT3 enzyme inhibitory assay (fluorescence); type: biochemical; conditions: dose of 10 μM; mean of three experiments; read-out: SIRT3 percentage inhibitory rate
# T1 sequence (Q9NTG7 1-399): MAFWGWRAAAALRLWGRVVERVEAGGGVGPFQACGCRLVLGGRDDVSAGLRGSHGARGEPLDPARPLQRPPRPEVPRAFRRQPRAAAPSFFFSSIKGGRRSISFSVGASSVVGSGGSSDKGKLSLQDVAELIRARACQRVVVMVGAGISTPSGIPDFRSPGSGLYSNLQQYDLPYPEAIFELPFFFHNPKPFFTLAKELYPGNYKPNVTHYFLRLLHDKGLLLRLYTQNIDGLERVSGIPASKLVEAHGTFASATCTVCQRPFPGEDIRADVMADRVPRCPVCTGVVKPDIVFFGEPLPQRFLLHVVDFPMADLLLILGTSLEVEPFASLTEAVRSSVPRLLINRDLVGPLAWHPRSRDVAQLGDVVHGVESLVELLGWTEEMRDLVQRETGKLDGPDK
# Protocol: (§1) All of the enzymatic reactions were conducted at 37°C for 30 min. […] The compounds were diluted in 10% DMSO and 5 ul of the dilution was added to each reaction mixture (50 ul). The assay was performed by quantitating the amount of fluorescent product generated from the enzyme reaction. Fluorescence intensity is then analyzed at excitation wavelength of 350–360 nm and emission wavelength of 450–460 nm on a SpectraMax M5 microtiter plate reader. The IC50 values were calculated using Prism GraphPad software.
# THP-1 cells = experiment: In vitro antiproliferative CCK-8 assay, THP-1; type: cell-based; conditions: Homo sapiens, dose of 1 μM, mean of three experiments, read-out: THP-1 percentage inhibitory rate
# Protocol: The proliferation of THP-1, MOLM-13, SEM and MV4-11 cells was tested by CCK-8 assay. Briefly, cells were seeded in 96-well plate with about 5 × 10^3 cells in each well. The cells were treated with P6 or Ara-C (0–10 µM) after 24 h of incubation. CCK-8 reagent ([…]) was added to each well after 72 h of incubation, and cells were incubated at 37°C for 4 h. The light absorbance at 450 nm was measured by using an Opsys microplate reader (Dynex Technologirs, Chantilly, VA, United States). Results are illustrated as percent of cell viability normalized to DMSO-treated control cells.
# SIRT1 = target: T2, SIRT1 (Homo sapiens, UniProt Q96EB6); experiment: SIRT1 enzyme inhibitory assay (fluorescence); type: biochemical; conditions: SIRT1 enzyme activity; for activity at 0.333 µM: 333 nM
# T2 sequence (Q96EB6 1-747): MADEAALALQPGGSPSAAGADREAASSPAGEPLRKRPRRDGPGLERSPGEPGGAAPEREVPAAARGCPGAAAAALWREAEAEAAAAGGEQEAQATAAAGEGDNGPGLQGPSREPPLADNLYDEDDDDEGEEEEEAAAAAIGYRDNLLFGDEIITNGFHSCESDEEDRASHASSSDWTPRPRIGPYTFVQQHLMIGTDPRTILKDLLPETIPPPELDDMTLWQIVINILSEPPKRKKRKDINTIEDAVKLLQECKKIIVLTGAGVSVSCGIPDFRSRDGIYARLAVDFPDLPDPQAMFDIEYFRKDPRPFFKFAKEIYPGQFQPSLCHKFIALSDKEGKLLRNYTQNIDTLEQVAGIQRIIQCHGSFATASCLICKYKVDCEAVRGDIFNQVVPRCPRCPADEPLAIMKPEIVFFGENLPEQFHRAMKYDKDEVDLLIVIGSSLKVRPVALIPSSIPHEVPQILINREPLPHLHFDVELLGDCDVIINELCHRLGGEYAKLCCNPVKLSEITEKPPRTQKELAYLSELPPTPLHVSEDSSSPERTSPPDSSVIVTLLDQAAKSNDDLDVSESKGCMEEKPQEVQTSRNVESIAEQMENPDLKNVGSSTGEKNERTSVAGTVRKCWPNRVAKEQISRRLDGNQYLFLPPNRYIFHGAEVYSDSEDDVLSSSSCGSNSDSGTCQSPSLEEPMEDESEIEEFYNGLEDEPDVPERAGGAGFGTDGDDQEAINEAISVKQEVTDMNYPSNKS
# Protocol: as §1
# SIRT2 = target: T3, SIRT2 (Homo sapiens, UniProt Q8IXJ6); experiment: SIRT2 enzyme inhibitory assay (fluorescence); type: biochemical; conditions: for activity at 0.01 µM / activity at 0.033 µM / activity at 0.1 µM / activity at 0.333 µM / activity at 1 µM / activity at 3.3 µM / activity at 10 µM / activity at 33 µM / activity at 100 µM: SIRT2 enzyme activity; for activity at 0.01 µM: 10 nM; for activity at 0.033 µM: 33 nM; for activity at 0.1 µM: 100 nM; for activity at 0.333 µM: 333 nM
# T3 sequence (Q8IXJ6 1-389): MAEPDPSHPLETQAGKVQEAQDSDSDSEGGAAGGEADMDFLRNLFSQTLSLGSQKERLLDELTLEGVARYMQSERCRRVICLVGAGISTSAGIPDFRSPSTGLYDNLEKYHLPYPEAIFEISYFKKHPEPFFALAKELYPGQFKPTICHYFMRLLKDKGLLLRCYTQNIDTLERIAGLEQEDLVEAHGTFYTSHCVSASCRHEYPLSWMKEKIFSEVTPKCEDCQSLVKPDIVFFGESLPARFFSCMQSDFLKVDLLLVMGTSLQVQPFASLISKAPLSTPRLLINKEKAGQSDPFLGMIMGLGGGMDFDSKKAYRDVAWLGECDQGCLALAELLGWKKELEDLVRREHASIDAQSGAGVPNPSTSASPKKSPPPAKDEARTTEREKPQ
# Protocol: as §1
compound,measurement,setting,value
"C=CC(=O)Nc1ccc(-c2cc(C(=O)Nc3ccc(Cl)cc3)c3ccccc3n2)cc1 [Compound P11, 2-(4-Acryloylamino-phenyl)-quinoline-4-carboxylic acid (4-chloro-phenyl)-amide]",inhibition at 10 µM,SIRT3,35.7 ± 1.54%
same,inhibition at 1 µM,THP-1 cells,58 ± 2.08%
"C=CC(=O)Nc1ccc(-c2cc(C(=O)Nc3cccc(OC)c3)c3ccccc3n2)cc1 [Compound P21, 2-(4-Acryloylamino-phenyl)-quinoline-4-carboxylic acid (3-methoxy-phenyl)-amide]",inhibition at 10 µM,SIRT3,22.2 ± 1.72%
same,inhibition at 1 µM,THP-1 cells,35.4 ± 1.58%
"C=CC(=O)Nc1ccc(-c2cc(C(=O)Nc3ccc(F)cc3)c3ccccc3n2)cc1 [Compound P14, 2-(4-Acryloylamino-phenyl)-quinoline-4-carboxylic acid (4-fluoro-phenyl)-amide]",inhibition at 10 µM,SIRT3,26.4 ± 1.78%
same,inhibition at 1 µM,THP-1 cells,53.2 ± 4.26%
"C=CC(=O)Nc1ccc(-c2cc(C(=O)Nc3ccc(C)cc3)c3ccccc3n2)cc1 [Compound P12, 2-(4-Acryloylamino-phenyl)-quinoline-4-carboxylic acid p-tolylamide]",inhibition at 10 µM,SIRT3,38.9 ± 2.62%
same,inhibition at 1 µM,THP-1 cells,72.8 ± 3.25%
"C=CC(=O)Nc1ccc(-c2cc(C(=O)N3CCN(C(C)C)CC3)c3ccccc3n2)cc1 [Compound P3, N-{4-[4-(4-Isopropyl-piperazine-1-carbonyl)-quinolin-2-yl]-phenyl}-acrylamide]",inhibition at 10 µM,SIRT3,30.6 ± 2.45%
same,inhibition at 1 µM,THP-1 cells,8.78 ± 0.37%
"C=CC(=O)Nc1ccc(-c2cc(C(=O)Nc3ccc(Br)cc3)c3ccccc3n2)cc1 [Compound P10, 2-(4-Acryloylamino-phenyl)-quinoline-4-carboxylic acid (4-bromo-phenyl)-amide]",inhibition at 10 µM,SIRT3,26.8 ± 1.88%
same,inhibition at 1 µM,THP-1 cells,44.3 ± 1.96%
"NC(=O)c1cccnc1 [Nicotinamide, reference compound]",activity at 0.01 µM,"SIRT1; 10 nM, Repeat2",98%
same,activity at 0.033 µM,"SIRT1; 33 nM, Repeat2",99%
same,activity at 0.1 µM,"SIRT1; 100 nM, Repeat1",98%
same,activity at 0.333 µM,SIRT1; Repeat1,99%
same,activity at 0.333 µM,SIRT1; Repeat2,97%
same,activity at 1 µM,"SIRT1; 1 µM, Repeat1",100%
same,activity at 3.3 µM,SIRT1; Repeat1,93%
same,activity at 3.3 µM,SIRT1; Repeat2,96%
same,activity at 10 µM,SIRT1; Repeat1,79%
same,activity at 10 µM,SIRT1; Repeat2,73%
same,activity at 33 µM,SIRT1; Repeat1,59%
same,activity at 33 µM,SIRT1; Repeat2,52%
same,activity at 100 µM,SIRT1; Repeat1,10%
same,activity at 100 µM,SIRT1; Repeat2,17%
same,activity at 0.01 µM,SIRT2; Repeat1,100%
same,activity at 0.01 µM,SIRT2; Repeat2,99%
same,activity at 0.033 µM,SIRT2; Repeat1,99%
same,activity at 0.033 µM,SIRT2; Repeat2,98%
same,activity at 0.1 µM,SIRT2; Repeat1,97%
same,activity at 0.333 µM,SIRT2; Repeat1,100%
same,activity at 0.333 µM,SIRT2; Repeat2,100%
same,activity at 1 µM,SIRT2; Repeat2,99%
same,activity at 3.3 µM,SIRT2; Repeat1,92%
same,activity at 3.3 µM,SIRT2; Repeat2,91%
same,activity at 10 µM,SIRT2; Repeat1,79%
same,activity at 10 µM,SIRT2; Repeat2,69%
same,activity at 33 µM,SIRT2; Repeat1,39%
same,activity at 33 µM,SIRT2; Repeat2,43%
same,activity at 100 µM,SIRT2; Repeat1,17%
same,activity at 100 µM,SIRT2; Repeat2,12%
"C=CC(=O)Nc1ccc(-c2cc(C(=O)N3CCN(c4ccccc4OC)CC3)c3ccccc3n2)cc1 [Compound P8, N-(4-{4-[4-(2-Methoxy-phenyl)-piperazine-1-carbonyl]-quinolin-2-yl}-phenyl)-acrylamide]",inhibition at 10 µM,SIRT3,45.5 ± 3.67%
same,inhibition at 1 µM,THP-1 cells,73.7 ± 3.74%
"C=CC(=O)Nc1ccc(-c2cc(C(=O)N3CCN(C(=O)OC(C)(C)C)CC3)c3ccccc3n2)cc1 [Compound P2, 4-[2-(4-Acryloylamino-phenyl)-quinoline-4-carbonyl]-piperazine-1-carboxylic acid tert-butyl ester]",inhibition at 10 µM,SIRT3,23.5 ± 2.13%
same,inhibition at 1 µM,THP-1 cells,26.4 ± 1.55%
"C=CC(=O)Nc1ccc(-c2cc(C(=O)N3CCN(c4ccc(OC)cc4)CC3)c3ccccc3n2)cc1 [Compound P7, N-(4-{4-[4-(4-Methoxy-phenyl)-piperazine-1-carbonyl]-quinolin-2-yl}-phenyl)-acrylamide]",inhibition at 10 µM,SIRT3,24.9 ± 1.47%
same,inhibition at 1 µM,THP-1 cells,12.4 ± 1.07%
"C=CC(=O)Nc1ccc(-c2cc(C(=O)Nc3cc(OC)cc(OC)c3)c3ccccc3n2)cc1 [Compound P15, 2-(4-Acryloylamino-phenyl)-quinoline-4-carboxylic acid (3,5-dimethoxy-phenyl)-amide]",inhibition at 10 µM,SIRT3,42.8 ± 1.26%
same,inhibition at 1 µM,THP-1 cells,49.6 ± 2.52%
"C=CC(=O)Nc1ccc(-c2cc(C(=O)Nc3ccc(CC)cc3)c3ccccc3n2)cc1 [Compound P13, 2-(4-Acryloylamino-phenyl)-quinoline-4-carboxylic acid (4-ethyl-phenyl)-amide]",inhibition at 10 µM,SIRT3,40.2 ± 2.91%
same,inhibition at 1 µM,THP-1 cells,59.9 ± 3.27%
C=CC(=O)Nc1ccc(-c2cc(C(=O)N3CCN(c4ccc(F)cc4)CC3)c3ccccc3n2)cc1 [Compound P1],inhibition at 10 µM,SIRT3,20.2 ± 1.22%
same,inhibition at 1 µM,THP-1 cells,32.5 ± 2.56%
"C=CC(=O)Nc1ccc(-c2cc(C(=O)Nc3ccc(OCC)cc3)c3ccccc3n2)cc1 [Compound P17, 2-(4-Acryloylamino-phenyl)-quinoline-4-carboxylic acid (4-ethoxy-phenyl)-amide]",inhibition at 10 µM,SIRT3,29.6 ± 1.43%
same,inhibition at 1 µM,THP-1 cells,13.8 ± 1.01%
"C=CC(=O)Nc1ccc(-c2cc(C(=O)Nc3ccc(CCCCC)cc3)c3ccccc3n2)cc1 [Compound P18, 2-(4-Acryloylamino-phenyl)-quinoline-4-carboxylic acid (4-pentyl-phenyl)-amide]",inhibition at 10 µM,SIRT3,30.6 ± 2.89%
same,inhibition at 1 µM,THP-1 cells,30 ± 1.39%
C=CC(=O)Nc1ccc(-c2cc(C(=O)Nc3ccc(N4CCN(C)CC4)cc3)c3ccccc3n2)cc1 [Compound P19],activity at 0.01 µM,SIRT2; Repeat1,101%
same,activity at 0.01 µM,SIRT2; Repeat2,99%
same,activity at 0.033 µM,SIRT2; Repeat1,99%
same,activity at 0.033 µM,SIRT2; Repeat2,99%
same,activity at 0.1 µM,SIRT2; Repeat1,101%
same,activity at 0.1 µM,SIRT2; Repeat2,101%
same,activity at 0.333 µM,SIRT2; Repeat1,96%
same,activity at 0.333 µM,SIRT2; Repeat2,98%
same,activity at 1 µM,SIRT2; Repeat1,97%
same,activity at 1 µM,SIRT2; Repeat2,98%
same,activity at 3.3 µM,SIRT2; Repeat1,100%
same,activity at 3.3 µM,SIRT2; Repeat2,99%
same,activity at 10 µM,SIRT2; Repeat1,91%
same,activity at 10 µM,SIRT2; Repeat2,86%
same,activity at 33 µM,SIRT2; Repeat1,79%
same,activity at 33 µM,SIRT2; Repeat2,76%
same,activity at 100 µM,SIRT2; Repeat1,34%
same,activity at 100 µM,SIRT2; Repeat2,28%
same,IC50,SIRT2; mean of two experiments,63.6 ± 4.2 µM
